Assay results from ChEMBL document CHEMBL5661943, “ASAP - In vitro antiviral effect” (2024).
Several values for one entry are separate records, joined by “and”; a condition that tells them apart may be missing. Identical values can stand only once.

Key:
dengue virus type 2 [1] = experiment: Functional immunofluorescence assay to measure dose dependent changes in antiviral-drug inhibitory efficacy against Dengue virus type 2 Thailand/16681/84 in Vero E6/TMPRSS2 cells (cotreated with P-gp inhibitor, Elacridar). Cells are treated with antiviral candidates that are serially diluted, following infection, cells are fixed. EC50 is reported via analysis of immunofluorescence staining. The assay has been performed by Icahn School of Medicine at Mount Sinai.; type: organism-based, Chlorocebus sabaeus, VeroE6/TMPRSS2; details: for EC90: P-gp concentration 2 uM, P-gp inhibitor Elacidar
dengue virus type 2 [2] = experiment: Functional assay to measure dose dependent changes in antiviral-drug inhibitory efficacy against Dengue virus type 2 New Guinea C in Vero E6 miRFP670 cells (cotreated with P-gp inhibitor, CP100356). Cells are treated with antiviral candidates that are serially diluted, following infection, cells are fixed. EC50 is reported via analysis of fluorescence intensity using high-content imager. The …; type: organism-based, Chlorocebus sabaeus, Vero C1008; details: for EC90: P-gp concentration 500 nM, P-gp inhibitor CP100356
Zika virus [3] = experiment: EC50 is reported via analysis of immunofluorescence staining. The assay has been performed by Icahn School of Medicine at Mount Sinai.; type: functional, organism-based, Chlorocebus sabaeus, VeroE6/TMPRSS2
Zika virus [4] = experiment: Functional CPE-based assay to measure dose dependent changes in antiviral-drug inhibitory efficacy against Zika virus MR766 in Vero E6 miRFP670 cells (cotreated with P-gp inhibitor, CP100356). Cells are treated with antiviral candidates that are serially diluted. EC50 is reported via analysis of MTS assay as a readout of CPE. The assay has been performed by KU Leuven.; type: organism-based, Chlorocebus sabaeus, Vero C1008; details: for EC90: P-gp concentration 500 nM, P-gp inhibitor CP100356

SMILES: Cc1c(C(=O)Nc2cc([C@H]3CCOC3)ccn2)cc(C2CC2)n1C
- EC50 (dengue virus type 2 [1]; Dengue virus, VeroE6/TMPRSS2): > 50 µM
- EC90 (dengue virus type 2 [1]; Dengue virus, VeroE6/TMPRSS2, Maximum measured 144.829 %, Minimum measured 95.742 %): > 50 µM
- EC90 (dengue virus type 2 [2]; Baseline response 0 %, Hill slope 0.336, Maximum measured 108.09 %, Maximum response 100 %, Minimum measured 73.455 %, R squared 0.31): > 50 µM
- EC50 (dengue virus type 2 [2]; Dengue virus, Vero C1008): > 50 µM
- EC90 (dengue virus type 2 [2]; Dengue virus, Vero C1008, Baseline response 0 %, Hill slope -3.691, Maximum measured 104.755 %, Maximum response 100 %, Minimum measured 84.933 %, R squared 0.225): > 50 µM
- EC50 (Zika virus [3]; Zika virus, VeroE6/TMPRSS2): 0.157 µM
- EC90 (Zika virus [3]; Zika virus, VeroE6/TMPRSS2): 49.5 µM
- EC50 (Zika virus [4]; Zika virus, Vero C1008): > 50 µM
- EC90 (Zika virus [4]; Zika virus, Vero C1008, Maximum measured 3.949 %, Minimum measured -5.577 %): > 50 µM
- EC90 (Zika virus [4]; Zika virus, Vero C1008, Maximum measured -8.54 %, Minimum measured -21.261 %): > 50 µM

SMILES: O=C(Nc1ccc2c(c1)CNC2)c1cc(Cl)cc2ccncc12
- EC50 (dengue virus type 2 [1]; Dengue virus, VeroE6/TMPRSS2): > 50 µM
- EC90 (dengue virus type 2 [1]; Dengue virus, VeroE6/TMPRSS2, Maximum measured 58.239 %, Minimum measured 35.466 %): > 50 µM
- EC90 (dengue virus type 2 [1]; Dengue virus, VeroE6/TMPRSS2, Baseline response 0 %, Hill slope -1.704, Maximum measured 164.443 %, Maximum response 150 %, Minimum measured 48.079 %, R squared 0.653): > 50 µM
- EC50 (dengue virus type 2 [1]; veroe6/tmprss2): 29.3 µM
- EC50 (dengue virus type 2 [2]; Dengue virus, Vero C1008): 41.2 µM
- EC90 (dengue virus type 2 [2]; Dengue virus, Vero C1008, Baseline response 0 %, Hill slope -2.845, Maximum measured 98.374 %, Maximum response 100 %, Minimum measured 34.264 %, R squared 0.76): > 50 µM
- EC90 (Zika virus [3]; Baseline response 0 %, EC90 CI (lower) 0.484 uM, EC90 CI (upper) 78.893 uM, Hill slope -5.004, Maximum measured 134.979 %, Maximum response 50 %, Minimum measured 2.857 %, P-gp concentration 2 uM, R squared 0.323, P-gp inhibitor Elacidar): 14.9 µM
- EC50 (Zika virus [3]; Zika virus, VeroE6/TMPRSS2): 16.1 µM
- EC90 (Zika virus [3]; Zika virus, VeroE6/TMPRSS2, Baseline response 0 %, Hill slope -17.627, Maximum measured 65.213 %, Maximum response 47.14 %, Minimum measured 8.096 %, P-gp concentration 2 uM, R squared 0.51, P-gp inhibitor Elacidar): 18.3 µM
- EC50 (Zika virus [3]; veroe6/tmprss2): 9.59 µM
- EC50 (Zika virus [4]; Zika virus, Vero C1008): 3.67 µM
- EC90 (Zika virus [4]; Zika virus, Vero C1008, Baseline response 0 %, EC90 CI (lower) 1.242 uM, EC90 CI (upper) 28.049 uM, Hill slope 4.622, Maximum measured 165.724 %, Maximum response 100 %, Minimum measured 0.965 %, R squared 0.715): 5.9 µM

SMILES: O=C(Nc1ccc2c(n1)CNC2)c1cc(Cl)cc2[nH]ncc12
- EC50 (dengue virus type 2 [1]; Dengue virus, VeroE6/TMPRSS2): 33.2 µM
- EC90 (dengue virus type 2 [1]; Dengue virus, VeroE6/TMPRSS2, Baseline response 0 %, Hill slope -0.91, Maximum measured 153.42 %, Maximum response 100 %, Minimum measured 44.335 %, R squared 0.461): > 50 µM
- EC50 (dengue virus type 2 [2]; Dengue virus, Vero C1008): > 50 µM
- EC90 (dengue virus type 2 [2]; Dengue virus, Vero C1008, Baseline response 0 %, Hill slope 0.339, Maximum measured 101.822 %, Maximum response 100 %, Minimum measured 73.077 %, R squared 0.116): > 50 µM
- EC50 (Zika virus [3]; Zika virus, VeroE6/TMPRSS2): 5.29 µM
- EC90 (Zika virus [3]; Zika virus, VeroE6/TMPRSS2, Baseline response 0 %, Hill slope -0.136, Maximum measured 80.309 %, Maximum response 100 %, Minimum measured 35.788 %, P-gp concentration 2 uM, R squared 0.184, P-gp inhibitor Elacidar): > 50 µM
- EC50 (Zika virus [4]; Zika virus, Vero C1008): > 50 µM
- EC90 (Zika virus [4]; Zika virus, Vero C1008, Baseline response 0 %, Hill slope 0.276, Maximum measured 8.826 %, Maximum response 100 %, Minimum measured 2.871 %, R squared 0.346): > 50 µM

SMILES: O=C(NCC(F)F)[C@H](Nc1ccc2c(c1)CNC2)c1cc(Cl)cc(C2CC2)c1
- EC50 (dengue virus type 2 [1]; Dengue virus, VeroE6/TMPRSS2): > 50 µM
- EC90 (dengue virus type 2 [1]; Dengue virus, VeroE6/TMPRSS2, Maximum measured 212.671 %, Minimum measured 62.173 %): > 50 µM
- EC50 (dengue virus type 2 [2]; Dengue virus, Vero C1008): > 50 µM
- EC90 (dengue virus type 2 [2]; Dengue virus, Vero C1008, Maximum measured 140.556 %, Minimum measured 63.358 %): > 50 µM
- EC90 (dengue virus type 2 [2]; Dengue virus, Vero C1008, Maximum measured 143.73 %, Minimum measured 67.897 %): > 25 µM
- EC90 (dengue virus type 2 [2]; Dengue virus, Vero C1008, Baseline response 0 %, Hill slope -0.993, Maximum measured 109.944 %, Maximum response 100 %, Minimum measured 57.337 %, R squared 0.512): > 50 µM
- EC50 (dengue virus type 2 [2]; vero c1008): > 25 µM
- EC90 (Zika virus [3]; Baseline response 0 %, Hill slope -0.396, Maximum measured 99.851 %, Maximum response 100 %, Minimum measured 40.832 %, P-gp concentration 2 uM, R squared 0.557, P-gp inhibitor Elacidar): > 5.56 µM
- EC90 (Zika virus [3]; Baseline response 0 %, Hill slope -0.815, Maximum measured 101.881 %, Maximum response 50 %, Minimum measured 25.102 %, P-gp concentration 2 uM, R squared 0.285, P-gp inhibitor Elacidar): > 5.56 µM
- EC90 (Zika virus [3]; Zika virus, VeroE6/TMPRSS2, Maximum measured 91.336 %, Minimum measured 34.975 %, P-gp concentration 2 uM, P-gp inhibitor Elacidar): > 1.85 µM
- EC90 (Zika virus [3]; Zika virus, VeroE6/TMPRSS2, Baseline response 0 %, Hill slope -0.205, Maximum measured 120.59 %, Maximum response 100 %, Minimum measured 43.549 %, P-gp concentration 2 uM, R squared 0.084, P-gp inhibitor Elacidar): > 5.56 µM
- EC90 (Zika virus [4]; Baseline response 0 %, EC90 CI (lower) 0 uM, EC90 CI (upper) 0 uM, Hill slope 19.422, Maximum measured 104.146 %, Maximum response 100 %, Minimum measured 1.001 %, R squared 0.972): 3.54 µM
- EC90 (Zika virus [4]; Baseline response 0 %, EC90 CI (lower) 1.312 uM, EC90 CI (upper) 1.931 uM, Hill slope 6.18, Maximum measured 105.591 %, Maximum response 100 %, Minimum measured 3.511 %, R squared 0.974): 1.59 µM
- EC90 (Zika virus [4]; Baseline response 0 %, EC90 CI (lower) 26.105 uM, EC90 CI (upper) 61.789 uM, Hill slope 1.533, Maximum measured 103.939 %, Maximum response 100 %, Minimum measured 1.936 %, R squared 0.959): 40.2 µM
- EC50 (Zika virus [4]; vero c1008): 9.58 µM and 3.16 µM and 1.11 µM

SMILES: O=C(Nc1ccc2c(c1)CNC2)c1cc(C(F)(F)F)cc2[nH]ccc12
- EC50 (dengue virus type 2 [1]; Dengue virus, VeroE6/TMPRSS2): > 16.7 µM
- EC90 (dengue virus type 2 [1]; Dengue virus, VeroE6/TMPRSS2, Baseline response 0 %, Hill slope -15.878, Maximum measured 193.651 %, Maximum response 148.635 %, Minimum measured 63.423 %, R squared 0.446): > 16.7 µM
- EC50 (dengue virus type 2 [2]; Dengue virus, Vero C1008): > 50 µM
- EC90 (dengue virus type 2 [2]; Dengue virus, Vero C1008, Baseline response 0 %, Hill slope -0.556, Maximum measured 107.588 %, Maximum response 100 %, Minimum measured 39.301 %, R squared 0.196): > 50 µM
- EC50 (Zika virus [3]; Zika virus, VeroE6/TMPRSS2): > 50 µM
- EC90 (Zika virus [3]; Zika virus, VeroE6/TMPRSS2, Maximum measured 116.047 %, Minimum measured 72.993 %, P-gp concentration 2 uM, P-gp inhibitor Elacidar): > 50 µM
- EC50 (Zika virus [4]; Zika virus, Vero C1008): 45.6 µM
- EC90 (Zika virus [4]; Zika virus, Vero C1008, Baseline response 0 %, Hill slope 3.148, Maximum measured 56.87 %, Maximum response 100 %, Minimum measured -2.102 %, R squared 0.945): > 50 µM

SMILES: CNC(=O)[C@H](Nc1ccc2c(c1)CNC2)c1cc(Cl)cc(C2CC2)c1
- EC50 (dengue virus type 2 [1]; Dengue virus, VeroE6/TMPRSS2): > 50 µM
- EC90 (dengue virus type 2 [1]; Dengue virus, VeroE6/TMPRSS2, Maximum measured 162.297 %, Minimum measured 85.868 %): > 50 µM
- EC90 (Zika virus [3]; Zika virus, VeroE6/TMPRSS2, Maximum measured 135.998 %, Minimum measured 64.507 %, P-gp concentration 2 uM, P-gp inhibitor Elacidar): > 16.7 µM
- EC90 (Zika virus [3]; Zika virus, VeroE6/TMPRSS2, Baseline response 0 %, Hill slope -0.359, Maximum measured 94.864 %, Maximum response 100 %, Minimum measured 60.283 %, P-gp concentration 2 uM, R squared 0.436, P-gp inhibitor Elacidar): > 5.56 µM
- EC50 (Zika virus [3]; veroe6/tmprss2): > 16.7 µM
- EC50 (Zika virus [4]; Zika virus, Vero C1008): 3.04 µM
- EC90 (Zika virus [4]; Zika virus, Vero C1008, Baseline response 0 %, EC90 CI (lower) 0.152 uM, EC90 CI (upper) 118.856 uM, Hill slope 6.595, Maximum measured 181.208 %, Maximum response 100 %, Minimum measured 1.929 %, R squared 0.623): 4.25 µM

SMILES: CC(C)OC(=O)Nc1cc(Cl)cc(C(=O)Nc2cccc(CN)c2)c1
- EC50 (dengue virus type 2 [1]; Dengue virus, VeroE6/TMPRSS2): > 16.7 µM
- EC90 (dengue virus type 2 [1]; Dengue virus, VeroE6/TMPRSS2, Baseline response 0 %, Hill slope -10.347, Maximum measured 131.012 %, Maximum response 100 %, Minimum measured 66.05 %, R squared 0.241): > 16.7 µM
- EC50 (dengue virus type 2 [2]; Dengue virus, Vero C1008): > 6.25 µM
- EC90 (dengue virus type 2 [2]; Dengue virus, Vero C1008, Maximum measured 143.842 %, Minimum measured 98.266 %): > 6.25 µM
- EC50 (Zika virus [3]; Zika virus, VeroE6/TMPRSS2): > 16.7 µM
- EC90 (Zika virus [3]; Zika virus, VeroE6/TMPRSS2, Maximum measured 132.205 %, Minimum measured 71.008 %, P-gp concentration 2 uM, P-gp inhibitor Elacidar): > 16.7 µM

SMILES: NCCCCc1ccc(NC(=O)c2cc(Cl)cc(NC(=O)OCc3ccccc3)c2)cc1
- EC50 (dengue virus type 2 [1]; Dengue virus, VeroE6/TMPRSS2): > 5.56 µM
- EC90 (dengue virus type 2 [1]; Dengue virus, VeroE6/TMPRSS2, Maximum measured 145.088 %, Minimum measured 103.355 %): > 5.56 µM
- EC50 (dengue virus type 2 [2]; Dengue virus, Vero C1008): 4.18 µM
- EC90 (dengue virus type 2 [2]; Dengue virus, Vero C1008, Baseline response 0 %, EC90 CI (lower) 1.854 uM, EC90 CI (upper) 4.634 uM, Hill slope -6.186, Maximum measured 92.478 %, Maximum response 100 %, Minimum measured 7.244 %, R squared 0.772): 5.96 µM
- EC50 (Zika virus [3]; Zika virus, VeroE6/TMPRSS2): > 5.56 µM
- EC90 (Zika virus [3]; Zika virus, VeroE6/TMPRSS2, Maximum measured 140.797 %, Minimum measured 81.401 %, P-gp concentration 2 uM, P-gp inhibitor Elacidar): > 5.56 µM
